Key:
SOD1G93A transgenic mice = experiment: Rotarod latency test in ALS animal model; type: in vivo; conditions: oral once daily from 70 days of age for 70 days, edaravone 15 mg/kg, NDC-011 nebivolol 5 mg/kg+donepezil 3 mg/kg, compared to the normal control group
Experimental: SOD1G93A transgenic mice as ALS animal models were used to verify the in vivo efficacy of the nebivolol and donepezil complex. Edaravone (15 mg/kg) as a commercially available ALS treatment, or a nebivolol and donepezil complex (NDC-011, nebivolol 5 mg/kg+donepezil 3 mg/kg) according to the present invention was administered to mice from 70 days of age once daily. Each dose was orally administered for 70 days. The rotarod latency test was performed immediately before the start of drug administration to evaluate the motor ability of each animal, and, thereafter, the rotarod latency test was performed during the drug administration period at 7-day intervals to evaluate the motor ability of the ALS animals.

microglia (BV2 cells) = experiment: NO generation in LPS-treated microglia (anti-inflammatory effect); type: cell-based; conditions: BV2 cells treated with LPS and drug at the same time; compared to the LPS control group
Experimental: Microglia (BV2 cells) were treated with LPS to cause an inflammatory response and, at the same time, treated with nebivolol alone, donepezil alone, or nebivolol+donepezil combination to measure the concentration of generated NO.

[1] = tested on: Immortalized human neural progenitor cell line (ReNcell VM); experiment: Differentiation of neural progenitor cells into motor neurons (HB9 immunostaining / CellTag); type: cell-based; conditions: compared to the control group
Experimental: Immortalized human neural progenitor cell line (ReNcell VM) as a neural progenitor cell that may differentiate into neurons and glial cells was treated with nebivolol alone, donepezil alone, and nebivolol+donepezil combination. Thereafter, immunostaining was performed using an antibody capable of selectively binding to motor neurons (anti-HB9 antibody) and a CellTag probe that stains whole cells. Thereafter, the HB9 positive signal and the value of CellTag were analyzed to determine the number of motor neurons among the total cells, thereby measuring the degree of differentiation of neural precursor cells into motor neurons.

neuroblasts (SH-SY5Y) = experiment: ROS generation after H2O2 oxidative stress (DCF fluorescence); type: cell-based; conditions: compared to the control group
[2] = ReNcell VM, low concentration (0.01 μM) of nebivolol or donepezil alone

CC1=NN(c2ccccc2)C(=O)C1 [edaravone, Edaravone]
age from which exercise capacity decreased (rotarod latency) (SOD1G93A transgenic mice): 84 days

COc1cc2c(cc1OC)C(=O)C(CC1CCN(Cc3ccccc3)CC1)C2 (centres unmarked) [donepezil, Donepezil]
concentration of generated NO (microglia (BV2 cells)): significant reduction in NO
HB-9 expression (motor neuron marker) [1, 2]: not observed
amount of generated reactive oxygen species (ROS) (neuroblasts (SH-SY5Y)): no significant decrease

OC(CNCC(O)C1CCc2cc(F)ccc2O1)C1CCc2cc(F)ccc2O1 (centres unmarked) [nebivolol, Nebivolol]
concentration of generated NO (microglia (BV2 cells)): significant reduction in NO
HB-9 expression (motor neuron marker) ([1]; ReNcell VM under differentiation conditions): significant increase in HB-9 expression
HB-9 expression (motor neuron marker) [1, 2]: not observed
amount of generated reactive oxygen species (ROS) (neuroblasts (SH-SY5Y)): no significant decrease

— patent US20240148711A1, “COMPOSITION COMPRISING BETA BLOCKER AND CHOLINESTERASE INHIBITOR FOR TREATMENT OF NEURODEGENERATIVE DISEASE” (DR. NOAH BIOTECH INC., priority 2022, published 2024)
